Measurements reported in US12268739B2, “Use of toll-like receptor 2 (TLR-2) agonist for modulating human immune response” (Children's Medical Center Corporation, priority 2018, dated 2025).

Key:
[1] = tested on: NF-κB reporter THP1 cells; assay: NF-kB-induced luminescence HTS in THP1-Lucia cells (384-well); assay type: cell-based, human; conditions: ranked at 3.3 μM; ~200,000 compounds tested
Text: HTS Overview: To identify immunomodulators/adjuvants that robustly activate human immune cells, ˜200,000 small molecules were screening in a THP1 cell-based assay. The chemical libraries screened included known bioactive and commercial libraries from various sources including commercial libraries such as ChemDiv, ChemBridge, and Asinex. All libraries were owned and provided by the Institute of Chemistry and Cell Biology (ICCB)—Longwood (Harvard Medical School). The project primary screen incorporated two distinct arms: a) a luciferase-based screen which corresponds to the relative activation of the NF-κB reporter; and b) a fluorescence-based screen, corresponding to the phenotypic adherence, a distinct marker of cell activation, of the human monocytic THP-1 cell lines. Described herein are small molecules identified in the screen that induce NF-kB activity based on a luciferase-based THP-1 cell screen.
(§1) THP-1 Cell Line and Culture Conditions. The THP1-Lucia™ cell line was obtained from Invivogen (San Diego, CA). THP1-Lucia cells, which are human monocytic cells derived from the blood of a child with leukemia, contain an NF-kB-inducible Luc reporter construct. This allows NF-kB activation to be measured by quantifying the luminescence from the secreted luciferase enzyme. THP1-Lucia cells were cultured in RPMI 1640 supplemented with 10% non-heat inactivated fetal bovine serum (FBS), 10 mM HEPES, 1.0 mM sodium pyruvate, 50 ug/ml Pen-Strep, and 100 ug/mL Normocin™. Once cultured, the cells were stored in a 37° C. incubator with 5% CO2 and a humidified atmosphere. Cells were passaged every 2-3 days and not allowed to exceed a concentration of 2.0×10^6 cells/ml media.
NF-kB-induced Luminescence Assay. THP1-Lucia cells between passage 15 and 18 and suspended in culture medium were dispensed into 384-well black clear-bottom plates (Corning 3712) at 30,000 cells/30 μl/well using a Combi liquid dispenser. To allow comparison to a benchmark small molecule with known immune stimulating activity, cells at the same concentration were stimulated with 50 μM R848, a TLR7/8 agonist, in 0.3% DMSO and added to every other well of column 24, which was left empty of cells, by multichannel pipette at the same volume. Five μl of 700 nM Phorbol myristate acetate (PMA) in THP1 culture media and 2.3% DMSO, a known peripheral blood cell mitogen, was added to every other well of column 23 by multichannel pipette (final concentration in well: 100 nM in 0.3% DMSO). Five μl of THP1 culture media with 2.3% DMSO was added to the remaining wells of column 23 by multichannel pipette (final concentration 0.3% DMSO). One hundred nl aliquots of library compounds diluted in 100% DMSO were transferred from their original 384-well plates to the assay plates using a Seiko pin transfer machine. Each library plate was pinned in duplicate, yielding two assay plates with identical conditions for comparison. Plates were then incubated for 24 hours at 37 C with 5% CO2 in humid conditions. Following incubation, 10 μL of supernatant was removed from each well and transferred to a white plate (Corning 3570) using a Vprep liquid transfer machine. 10 μL of recombinant Lucia protein (Invivogen) diluted 1:2000 in THP1 culture media was added to empty well 24P. Using a Combi liquid dispenser, 50 μL/well of Quanti-Luc substrate (Invivogen) diluted 1:3 in sterile water was added to the assay plate. Immediately after adding the substrate, the luminescence was read using a PerkinElmer Envision plate reader.

[2] = tested on: human adult PBMCs; assay: Cytokine production by stimulated human adult PBMCs (ELISA / multiplex); assay type: cell-based; conditions: human adult PBMCs, 24 hours, compounds at 100 µM (FIG. 7), ELISA, median
Description: ELISAs and Multiplex-Analyte Assays. Supernatants derived from human PBMCs stimulations were assayed by ELISA for TNF and IL-6 (ThermoFisher Scientific; Waltham, MA, USA). Cytokine and chemokine expression profiles (e.g., IFNγ, IL-9, IL-10, IL-12 (p70), IL-13, IL-1β, IL-23, IL-27, IL-28A, IL-33, IL-6, MIP-3α/CCL20, and TNF) in cell culture supernatants were measured using a customized Milliplex® Human Th17 Magnetic Bead Panel according to the manufacturer's instructions (Millipore, Chicago, IL, USA). Assays were read and analyzed on the Luminex® 100/200TM System and xPOTENT® software (Luminex, Austin, TX). A minimum threshold was set at the minimum detectable concentration for each individual assay, defined as three standard deviations above the mean background.
PBMCs were isolated from blood using a Ficoll density gradient. PBMCs either used fresh or were stored at 5×10^7 cells per vial in 1 mL RPMI containing 20% autologous plasma and 10% DMSO at −80° C. until use. […] PBMCs isolated from human adult donors or THP1-NF-κB cells were resuspended at a concentration of 10^5 cells/200 μl of RPMI supplemented with 10% of platelet-poor plasma or THP1 culture medium, respectively. […] After 24 hours of incubation (37° C., 5% CO2), plates were spun down (500×g, room temperature, 5 minutes) and supernatants were harvested for further analysis.

[3] = tested on: THP1-NF-κB cells; assay: THP1-NF-κB cell stimulation for 24 hours, secreted luciferase luminescence; assay type: cell-based, human; conditions: NF-κB-dependent luminescence, 24 hours; for THP1 cells (relative luminescence units, N = 4) Comp at 25 uM: compound at 25 uM; for THP1 cells (relative luminescence units, N = 4) Comp at 100 uM: compound at 100 uM
Description: as §1
PBMCs were isolated from blood using a Ficoll density gradient. PBMCs either used fresh or were stored at 5×10^7 cells per vial in 1 mL RPMI containing 20% autologous plasma and 10% DMSO at −80° C. until use. Stimulation plates were prepared by transferring 0.66 μl of DMSO-dissolved compounds (30 or 7.5 mM) to each well of a round bottom 96-well plate. PBMCs isolated from human adult donors or THP1-NF-κB cells were resuspended at a concentration of 10^5 cells/200 μl of RPMI supplemented with 10% of platelet-poor plasma or THP1 culture medium, respectively. 200 μl of the cell suspension were transferred to each well resulting in a final compound concentration of 100 or 25 μM. After 24 hours of incubation (37° C., 5% CO2), plates were spun down (500×g, room temperature, 5 minutes) and supernatants were harvested for further analysis.

Row | Compound | Efficacy in activating NF-κB in THP1 cells (screening hits) [1] | Adult PBMCs (median ng/ml) IL-6 (N = 7) [2] [ng/mL] | Adult PBMCs (median ng/ml) TNFa (N = 13) [2] [ng/mL] | THP1 cells (relative luminescence units, N = 4) Comp at 25 uM [3] | THP1 cells (relative luminescence units, N = 4) Comp at 100 uM [3]
1 | COC(=O)c1c(NC(=O)CN2CCN(C(=O)c3ccco3)CC2)sc2c1CCC2 [Compound 003] | most effective | – | – | – | –
2 | CCOC(=O)c1c(NC(=O)CN2CCC3(CC2)OCCO3)sc(C)c1C [Compound 005] | most effective | – | – | – | –
3 | CNC(=O)c1c(NC(=O)c2ccc(Cl)cc2)sc2c1CCC2 [Compound 80.5] | – | 0.008 | 0.008 | 436.5 relative luminescence units | 777 relative luminescence units
4 | CCN(CC)S(=O)(=O)c1ccc(C(=O)Nc2sc3c(c2C(=O)NC)CCC3)cc1 [Compound 80.6] | – | – | – | 2505 relative luminescence units | 2816 relative luminescence units
5 | CNC(=O)c1c(NC(=O)c2ccc(OC)cc2)sc2c1CCC2 [Compound 80.8] | – | 0.008 | 0.008 | 258.5 relative luminescence units | 2552 relative luminescence units
6 | CNC(=O)c1c(NC(=O)c2ccc(C#N)cc2)sc2c1CCC2 [Compound 80.11] | – | 0.0225 | 0.008 | 1108 relative luminescence units | 2420 relative luminescence units
7 | CNC(=O)c1c(NC(=O)c2ccc(S(=O)(=O)N(C)C)cc2)sc2c1CCCCC2 [Compound 80.13] | – | 0.008 | 0.008 | 348 relative luminescence units | 11361 relative luminescence units
8 | CNC(=O)c1c(NC(=O)c2ccc(S(=O)(=O)N3CCCCC3)cc2)sc(C)c1C [Compound 80.14] | – | 0.008 | 0.008 | 517 relative luminescence units | 1475 relative luminescence units
9 | CNc1ccc([N+](=O)[O-])cc1-n1cnc(-c2ccc([N+](=O)[O-])cc2)c1 [TM-A, reference compound] | – | 2.154 | 0.092 | 8777 relative luminescence units | 13092 relative luminescence units
10 | COC(=O)c1c(NC(=O)Nc2ccccc2)sc2c1CCCC2 [TM-B, reference compound] | – | 0.057 | 0.008 | 1204 relative luminescence units | 681 relative luminescence units
11 | CCOC(=O)c1c(NC(=S)Nc2ccc(OC)cc2)sc2c1CCCC2 [TM-C, reference compound] | – | 0.5145 | 0.01575 | 3440 relative luminescence units | 4031 relative luminescence units
12 | Cc1ccc(N(CC(=O)NCc2ccc(Cl)cc2)S(C)(=O)=O)cc1 [TM-E, reference compound] | – | 0.008 | 0.008 | 320 relative luminescence units | 428.5 relative luminescence units
13 | COc1ccc(CNC(=O)CN(c2ccc(Br)cc2)S(=O)(=O)c2ccccc2)cc1 [TM-F, reference compound] | – | 0.008 | 0.008 | 348.5 relative luminescence units | 2012 relative luminescence units
